experiment: Single-molecule FRET cyclization (looping) of surface-immobilised 83 bp duplex with complementary 10-nt 5' overhangs; noncovalent ring closure by sticky-end hybridisation triggered by 1 M NaCl (no ligase); conditions: the molecule shown is the open-chain precursor, water, 50 mM Tris-HCl, 3 mM Trolox, glucose oxidase/catalase oxygen scavenger, other

In order of falling ring closure, halflife:
1. DNA 5'-Cy5-acggattctgtgaaacggtggaggtgaggaT(biotin)agtcatgggtcaattagaagtcataggagaagtattaagggagtctatattgaggtactagc-3' / DNA 5'-Cy3-cagaatccgtgctagtacctcaatatagactcccttaatacttctcctatgacttctaattgacccatgactatcctcacctccaccgtttca-3'  31.5 min
2. DNA 5'-Cy5-agagaaagaggcaaaaggggacggaagggaT(biotin)ggagccagaggagggggtgacagttgagtctcagccacaggtgaaggtggagccactggagg-3' / RNA 5'-Cy3-cucuuucucuccuccaguggcuccaccuucaccuguggcugagacucaacugucacccccuccucuggcuccaucccuuccguccccuuuugc-3'  26.1 min
3. DNA 5'-Cy5-gaagaagaggaaaaaagaaaagggacagaT(biotin)ggcaatgatggagccagggacggaggcgatggagccagtggagccggagatgaagcctctgga-3' / RNA 5'-Cy3-ccucuucuucuccagaggcuucaucuccggcuccacuggcuccaucgccuccgucccuggcuccaucauugccaucugucccuuuucuuuuuu-3'  21.7 min
4. DNA 5'-Cy5-acggattctgtgaaacggtggaggtgaggaT(biotin)agtcatgggtcaattagaagtcataggagaagtattaagggagtctatattgaggtactagc-3' / RNA 5'-Cy3-cagaauccgugcuaguaccucaauauagacucccuuaauacuucuccuaugacuucuaauugacccaugacuauccucaccuccaccguuuca-3'  20.4 min
5. DNA 5'-Cy5-cctccagtggctccaccttcacctgtggcT(biotin)gagactcaactgtcaccccctcctctggctccatcccttccgtccccttttgcctctttctct-3' / RNA 5'-Cy3-ccacuggaggagagaaagaggcaaaaggggacggaagggauggagccagaggagggggugacaguugagucucagccacaggugaagguggag-3'  10.8 min
6. DNA 5'-Cy5-tccagaggcttcatctccggctccactggcT(biotin)ccatcgcctccgtccctggctccatcattgccatctgtcccttttcttttttcctcttcttc-3' / RNA 5'-Cy3-agccucuggagaagaagaggaaaaaagaaaagggacagauggcaaugauggagccagggacggaggcgauggagccaguggagccggagauga-3'  10.3 min
